Key:
[1] = test system: cellular splicing in lymphoma cell lines; assay: RNA-sequencing splicing analysis in lymphoma cell lines; format: cell-based
Description: A. Mechanisms of regulation of cellular splicing (adapted from Bezzi M. et al.). B. Analysis of intron expression in lymphoma lines treated with 0.1 or 0.5 μM Compound B.
A. Quantification of isoform switches in 4 lymphoma cell lines treated with Compound B (0.1 and 0.5 μM) for 2 and 4 days. B. Overlap of isoform switches in 4 lymphoma lines. C. List of genes that undergo alternative splicing in all 4 lymphoma lines (overlap of 4 cell lines).
PRMT5 methylates histones and proteins involved in RNA processing and therefore PRMT5 inhibition is expected to have a profound effect on cellular mRNA homeostasis. To further decipher cellular mechanisms that are regulated by PRMT5 and contribute to the cellular response to PRMT5 inhibitors, global gene expression changes were evaluated in lymphoma models sensitive to PRMT5 inhibition. To elucidate gene expression changes that occur in lymphoma cell lines upon PRMT5 inhibitor treatment, 4 sensitive lymphoma lines (2 MCL lines-Z138 and Granta-519 and 2 DLBCL lines-DOHH2 and RL) were profiled by RNA-sequencing.
Since PRMT5 methylates spliceosome subunits and PRMT5 inhibition attenuates arginine methylation of a number of proteins involved in splicing, the effect of PRMT5 inhibin on cellular splicing was studied. The changes in RNA splicing were assessed in the lymphoma RNA-seq dataset described above. […]

[2] = test system: 19 enzymes on the methyltransferase selectivity panel (Type I and Type II PRMTs and lysine methyltransferases); assay: methyltransferase selectivity panel; format: biochemical; conditions: PRMT5 tool compounds
Source text: FIG. 6: Phylogenetic tree highlighting the methyltransferases tested in the selectivity panel. […] PRMT9 is shown for relationship purposes only within the family tree and was not evaluated in the panel. Figure adapted from Richon V M. et al.
PRMT9/FBXO11, which is the other Type II PRMT and the only PRMT to lack the THW loop, was not included due to the lack of a functional enzyme assay.

[3] = test system: SDMA, MDM4 splicing, p53 in GBM and lymphoma cell lines; assay: SDMA, MDM4 splicing and p53 in GBM and lymphoma cell lines; format: cell-based; conditions: 1 μM
Description: Next, effects on cellular methylation and the p53 pathway were evaluated in GBM cells treated with a PRMT5 inhibitor by measuring SDMA, p53 and p21 protein levels and MDM4 splicing (FIG. 27). […] Alternative MDM4 splicing was detected in all cell lines but SF539 which are p53 mutant and have low basal expression of the long MDM4 isoform (FIG. 27, panel A). p53 levels increased in all cell lines, while the induction of p21 protein was observed only in cell lines that have wild-type p53 (Z138 (MCL), U87-MG and A172 (GBM)). […] The role of p53 in the response of GBM cell lines to PRMT5 inhibition will be further tested in future studies. Additionally, the effects of PRMT5 inhibition on cell cycle and neural differentiation in GBM models are being explored.

[4] = test system: SKBR3, MDA-MB-468, MCF-7, ZR-75-1 and Z-138 cells; assay: longer-term growth/death assay in breast and MCL cell lines; format: cell-based; conditions: SKBR3, MDA-MB-468 and MCF-7 cells, 7-10 days
MDA-MB-468 xenograft = assay: MDA-MB-468 triple negative breast cancer xenograft model; format: in vivo; conditions: 100 mg/kg BID
Description: Next, the efficacy of PRMT5 inhibition was evaluated in in vivo models of breast cancer.

[5] = test system: MDM4 splicing, SDMA, p53 and p21 in MCL lines; assay: MDM4 splicing (RT-PCR) and SDMA/p53/p21 Western in MCL lines; format: cell-based; conditions: Z138 cells
Description: To understand whether p53 activation is associated with MDM4 isoform switching, MDM4 alternative splicing was analyzed. […] The role of the p53 pathway in the biology of the response of p53 wild-type MCL cells to PRMT5 inhibition is being evaluated.

Z-138 MCL xenograft = assay: 21-day efficacy study in Z-138 MCL xenograft model; format: in vivo; conditions: all groups in all efficacy studies presented
Description: B. Quantified SDMA western data from tumors harvested at the end of the efficacy study (3 hours post last dose).

MCL cell lines = assay: 6-day growth/death assay in a panel of MCL lines; format: cell-based; conditions: Mino, Jeko-1
Source text: FIG. 18: Activity of PRMT5 inhibitor and ibrutinib as single agents and in combination in MCL cell lines. […] C.
• The strongest mechanistic link currently described between PRMT5 and cancer is in MCL. PRMT5 is frequently overexpressed in MCL and is highly expressed in the nuclear compartment where it increases levels of histone methylation and silences a subset of tumor suppressor genes. Importantly, cyclin D1, the oncogene that is translocated in the vast majority of MCL patients, associates with PRMT5 and through a cdk4-dependent mechanism increases PRMT5 activity. PRMT5 mediates the suppression of key genes that negatively regulate DNA replication allowing for cyclin D1-dependent neoplastic growth. PRMT5 knockdown inhibits cyclin D1-dependent cell transformation causing death of tumor cells.

[6] = test system: panel of cancer cell lines; format: cell-based; conditions: most sensitive lymphoma lines (MCL and DLBCL)
Source text: (§1) DLBCL-diffuse large B-cell lymphoma, GBM-glioblastoma, MCL-mantle cell lymphoma, […]
as §1
The cell lines were selected to represent tumor types where PRMT5 activity has been reported to regulate key pathways and/or cell growth and survival (such as lymphoma and MCL, glioma, breast and lung cancer lines).

[7] = test system: xenograft models of mantle cell lymphoma; assay: xenograft models of mantle cell lymphoma (summary statement); format: in vivo
Source text: […] • The strongest mechanistic link currently described between PRMT5 and cancer is in MCL. PRMT5 is frequently overexpressed in MCL and is highly expressed in the nuclear compartment where it increases levels of histone methylation and silences a subset of tumor suppressor genes. […] The vast majority of SDMA containing proteins were factors that are involved in cellular splicing and RNA processing (SmB, Lsm4, hnRNPH1 and others), transcription (FUBP1) and translation highlighting the role of PRMT5 as an important regulator of cellular RNA homeostasis.

O=C(NC[C@H](O)CN1CCc2ccccc2C1)c1ccnc(NC2CCC2)c1 [Compound B]
isoform switching ([1]; 0.1 and 0.5 μM, 2 and 4 days, 4 lymphoma cell lines): induces isoform switching for a subset of genes | intron splicing ([1]; 0.1 or 0.5 μM, lymphoma cell lines): attenuates the splicing of a subset of introns | selectivity for PRMT5/MEP50 over the other methyltransferases [2]: Selectivity for PRMT5/MEP50 over the other methyltransferases was also observed | MDM4 splicing [3]: induces alternative splicing of MDM4 | SDMA levels [3]: decreases SDMA levels | p53 activation [3]: activates p53 | nature of response upon prolonged exposure [4]: cytotoxic response

CC(=O)N1CCC(Nc2cc(C(=O)NC[C@H](O)CN3CCc4ccccc4C3)ncn2)CC1 [Compound C]
Maximal tumor growth inhibition (TGI) (MDA-MB-468 xenograft): 83% | p53 and p21 expression ([5]; 200 nM): increased | body weight (Z-138 MCL xenograft): no body weight loss | nature of response upon prolonged exposure [4]: cytotoxic response | sensitivity in 6-day growth/death assay (MCL cell lines): only moderately sensitive | gIC50 [6]: single digit | tumor growth inhibition (TGI) [7]: ~100%

O=C(NC[C@H](O)CN1CCc2ccccc2C1)c1cc(NC2COC2)ncn1 [Compound E]
selectivity for PRMT5/MEP50 over the other methyltransferases [2]: Selectivity for PRMT5/MEP50 over the other methyltransferases was also observed

CC(=O)N1CCC(Nc2cc(C(=O)NC[C@H](O)CN3CCc4ccccc4C3)ccn2)CC1 [Compound F]
selectivity for PRMT5/MEP50 over the other methyltransferases [2]: Selectivity for PRMT5/MEP50 over the other methyltransferases was also observed

COc1ccc(C2=N[C@@H](c3ccc(Cl)cc3)[C@@H](c3ccc(Cl)cc3)N2C(=O)N2CCNC(=O)C2)c(OC(C)C)c1 [Nutlin-3, reference compound]
p53 and p21 expression ([5]; 5 μM): increased

Reference: patent US20210267973A1, “COMBINATION OF A TYPE II PROTEIN ARGININE […] INHIBITOR AND AN ICOS BINDING PROTEIN TO TREAT CANCER” (GLAXOSMITHKLINE INTELLECTUAL PROPERTY DEVELOPMENT LIMITED, priority 2018, published 2021)
